Where “and” joins values, the source holds several entries; their conditions need not be identical. Equal values may be shown once. Entries after “also recorded” stand apart in the source; their conditions may differ. Read-outs that look alike come from different tables or passages of the source.
Tests used:
[1] = target: T1, rBmPYKI (Babesia microti, UniProt A0A1N6LXR4); test: biochemical; format: biochemical
[2] = target: rBmLDH (Babesia microti, UniProt I7J7V6); test: biochemical; format: biochemical; details: for IC50: read-out: IC50 rBmLDH
Chain of rBmLDH (I7J7V6 1-332): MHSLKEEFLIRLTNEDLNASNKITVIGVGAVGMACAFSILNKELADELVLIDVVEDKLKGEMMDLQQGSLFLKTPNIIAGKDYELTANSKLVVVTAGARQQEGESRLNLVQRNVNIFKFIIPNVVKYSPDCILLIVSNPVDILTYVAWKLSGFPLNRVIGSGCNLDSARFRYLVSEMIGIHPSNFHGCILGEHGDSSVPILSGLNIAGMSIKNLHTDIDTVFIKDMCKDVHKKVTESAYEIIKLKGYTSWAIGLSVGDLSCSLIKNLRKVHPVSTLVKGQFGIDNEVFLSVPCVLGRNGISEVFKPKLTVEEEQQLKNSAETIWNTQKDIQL

[3] = tested on: B. microti; test: Growth inhibition of Babesia microti by in vitro culture; format: cell-based; details: for IC50: read-out: IC50 B. microti
Protocol: Infected mouse blood was collected and centrifuged at 845 × g for 5 min, and the infected mouse RBCs was isolated. The RBCs infected by B. microti were diluted to 5% with uninfected mouse and human RBCs (10:1). […] Drug-free wells were set up as blank control. All treatments were carried out in triplicate. After 72 h of incubation, parasitemia was examined by Giemsa staining under a microscope.

[4] = Cytotoxicity assay, Cell Counting Kit-8, HFF cells; details: human
[5] = Cytotoxicity assay, Cell Counting Kit-8, Vero cells; details: African green monkey
[6] = tested on: PYK from T. gondii; details: cited from earlier work
[7] = tested on: corresponding enzymes from mammals; details: cited from earlier work
[8] = tested on: PYK from P. falciparum; details: cited from earlier work
[9] = target: T1, rBmPYKI; test: Enzyme kinetics of rBmPYKI on substrates PEP and ADP; format: biochemical; details: substrate of rBmPYKI
Protocol: (§1) To determine the enzymatic activity of purified rBmPYKI, the GST tag was removed from the recombinant protein; and the indirect coupled lactate dehydrogenase (LDH) assay was applied. Recombinant B. microti LDH (rBmLDH) protein, the only one isoform in B. microti, was expressed and purified according to previously published protocol ([Yu et al., 2019]). The standard enzyme kinetic assay was conducted by monitoring the decrease in NADH at a wavelength of 340 nm using a microplate reader (BioTek, Winooski, VT, United States). One unit of the PYK activity here was defined as 1 μmol of NADH oxidized per minute at 37°C. The samples were continuously measured at 2, 7, 12, 17, 22, and 27 min. To determine the effects of pH and the concentration of Mg^2+ and K^+ on rBmPYKI, the assay was performed in the pH range of 5.5–8.5, and the Mg^2+ and K^+ concentrations ranged from 0 to 200 mM (0, 25, 50, 75, 100, 125, 150, 175, and 200 mM). The standard assay mixture (200 μl) contained 50 mM of Tris-HCl (pH 7.0), 50 mM of MgCl2, 20 mM of KCl, 0.5 mM of NADH (MilliporeSigma), 3 mM of PEP (MilliporeSigma), 1 mM of ADP (MilliporeSigma), 100 ng of rBmLDH (20 U), and 100 ng of rBmPYKI. The initial velocity for the rate of […] of NADH in the first 5 min was calculated, and the relative percentage activity was determined. The kinetic parameters for PEP (at 0.5, 1, 2, 3, 4, and 5 mM) under saturating ADP conditions (3 mM) were determined. The Michaelis–Menten constant (Km) for ADP under 7 mM of PEP (saturation) was determined at 0.05, 0.1, 0.2, 0.4, 0.6, 0.8, 1.0, 1.5, and 2.0 mM.

[10] = tested on: Vero cells
[11] = tested on: HFF cells
[12] = in vitro; details: human
[13] = in vitro; details: African green monkey
[14] = tested on: B. microti; test: Rescue assay of tannic acid (pyruvate or ATP added); format: cell-based, Babesia microti
Protocol: MilliporeSigma) was used as the positive control, and DMSO was used as the negative control because tannic acid was diluted in DMSO. The group only containing medium without any treatment was used as the blank control. Each test was performed in triplicate.

[15] = substrate: C=C(OP(=O)(O)O)C(=O)O; test: Enzyme kinetics of rBmPYKI on substrates PEP and ADP; format: biochemical, Babesia microti; details: other: substrate of rBmPYKI; other substrate saturating; pH 7.0; 37.0 °C
Protocol: as §1, with “The standard assay mixture (200 μl) contained 50 mM of Tris-HCl (pH 7.0), 50 mM of MgCl2, 20 mM of KCl, 0.5 mM of NADH (MilliporeSigma), 3 mM of PEP (MilliporeSigma), 1 mM of ADP (MilliporeSigma), 100 ng of rBmLDH (20 U), and 100 ng of rBmPYKI.” left out, “The Michaelis–Menten constant (Km) for ADP under 7 mM of PEP (saturation) was determined at 0.05, 0.1, 0.2, 0.4, 0.6, 0.8, 1.0, 1.5, and 2.0 mM.” left out

[16] = substrate: Nc1ncnc2c1ncn2[C@@H]1O[C@H](COP(=O)(O)OP(=O)(O)O)[C@@H](O)[C@H]1O; test: Indirect coupled LDH assay following NADH decrease at 340 nm, pH 7.0, 37 °C, 50 mM MgCl2, 20 mM KCl, ADP varied 0.05-2.0 mM at saturating 7 mM PEP, no FBP.; format: biochemical
Protocol: To determine the enzymatic activity of purified rBmPYKI, the GST tag was removed from the recombinant protein; and the indirect coupled lactate dehydrogenase (LDH) assay was applied. Recombinant B. microti LDH (rBmLDH) protein, the only one isoform in B. microti, was expressed and purified according to previously published protocol ([Yu et al., 2019]). The standard enzyme kinetic assay was conducted by monitoring the decrease in NADH at a wavelength of 340 nm using a microplate reader (BioTek, Winooski, VT, United States). One unit of the PYK activity here was defined as 1 μmol of NADH oxidized per minute at 37°C. The samples were continuously measured at 2, 7, 12, 17, 22, and 27 min. […] The initial velocity for the rate of […] of NADH in the first 5 min was calculated, and the relative percentage activity was determined. The kinetic parameters for PEP (at 0.5, 1, 2, 3, 4, and 5 mM) under saturating ADP conditions (3 mM) were determined. […]
Statistical analysis was conducted with GraphPad Prism 7.0 (GraphPad Software, La Jolla, CA, United States). Statistical significance was evaluated by one-way ANOVA; and all data were presented as the mean ± standard deviation (SD) from at least three independent experiments performed in duplicate. […]

[17] = in vitro culture, 72 h, parasitemia by Giemsa staining

Question: Which IC50 ([1]; read-out: IC50 rBmPYKI) does the source give for `Cc1ccc(C(=O)Nc2ccc(S(=O)(=O)O)c3cc(S(=O)(=O)O)cc(S(=O)(=O)O)c23)cc1NC(=O)c1cccc(NC(=O)Nc2cccc(C(=O)Nc3cc(C(=O)Nc4ccc(S(=O)(=O)O)c5cc(S(=O)(=O)O)cc(S(=O)(=O)O)c45)ccc3C)c2)c1` [Suramin] here?
Answer: 125 µM

Question: And the “effect on rBmLDH / LDH reaction activity” value [2]?
Answer: obvious inhibitory effect

Question: And the IC50 [2]?
Answer: 44.2 µM

Question: What does the source list for `CCc1ccc(CCOc2ccc(CC3SC(=O)NC3=O)cc2)nc1` (stereo not shown) [Pioglitazone]?
Answer: IC50 [1]: 44 µM; effect on the activity of rBmPYKI [1]: significantly inhibit; effect on rBmLDH / LDH reaction activity [2]: did not affect; IC50 [2]: > 1950 µM; effect on the growth of B. microti ([3]; in vitro culture, 72 h): no significant effect

Question: With `CC(C)=CC[C@@H](O)C1=CC(=O)c2c(O)ccc(O)c2C1=O` [Shikonin] as the molecule, how does the CC50 [4] read?
Answer: 0.63 ± 0.4 µM

Question: And the IC50 [1]?
Answer: 187 µM

Question: And the “effect on the activity of rBmPYKI” value [1]?
Answer: significantly inhibit

Question: What about the “effect on rBmLDH / LDH reaction activity” value [2] of the same molecule?
Answer: did not affect

Question: And the IC50 [2]?
Answer: > 1950 µM

Question: What about the CC50 [5] of the same molecule?
Answer: 2.37 ± 0.26 µM

Question: And the “hemolysis of RBCs” value ([3]; 100 μM, infected RBC culture)?
Answer: Slight hemolysis

Question: And the IC50 ([3]; Babesia microti, 72 h)?
Answer: 1.73 ± 0.69 µM

Question: And the inhibition at 20 µM ([3]; Babesia microti, 72 h, read-out: inhibition rate of B. microti growth)?
Answer: 80%

Question: With `Nc1ncnc2c1ncn2[C@@H]1O[C@H](COP(=O)(O)OP(=O)(O)O)[C@@H](O)[C@H]1O` [ADP] as the molecule, how does the Km [6] read?
Answer: 180 µM

Question: And the Km [7]?
Answer: 350 µM

Question: What about the Km [8] of the same molecule?
Answer: 126 µM

Question: And the Kcat [9]?
Answer: 21.8 S^–1

Question: What about the KcatKM [9] of the same molecule?
Answer: 5.62 × 10^4 S^–1⋅M^–1

Question: What about the Vmax [9] of the same molecule?
Answer: 242 ± 16 U/mg

Question: What about the Km ([9]; other substrate saturating) of the same molecule?
Answer: 388 ± 87 µM

Question: What does the source list for `CC1=C(CSC(=S)N2CCCCC2)C(=O)c2ccccc2C1=O` [PKM2 inhibitor]?
Answer: CC50 [10]: 39.2 ± 5.05 µM; effect on the activity of rBmPYKI [1]: significantly inhibit; IC50 ([1]; read-out: IC50 rBmPYKI): 23 µM; CC50 [11]: 18.6 ± 2.46 µM; effect on rBmLDH / LDH reaction activity [2]: did not affect; IC50 [2]: > 1950 µM; inhibition rate of B. microti growth ([3]; 50 μM, 72 h): 80%; IC50 [3, 17]: 1.15 ± 0.11 µM

Question: Which results are given for `O=c1cc(-c2ccc(O)cc2)oc2cc(O)cc(O)c12` [Apigenin]?
Answer: CC50 [12]: 33 ± 1.18 µM; IC50 [1]: 70 µM; effect on the activity of rBmPYKI [1]: significantly inhibit; effect on rBmLDH / LDH reaction activity [2]: did not affect; IC50 [2]: > 1950 µM; CC50 [13]: 58.6 ± 2.97 µM; IC50 ([3]; Babesia microti, in vitro culture, 72 h, parasitemia by Giemsa staining): 2.1 ± 1.16 µM

Question: What does the source list for Tannic acid?
Answer: inhibition of B. microti growth ([14]; 1 μM, concentration used in rescue assay): 70%; effect of addition of ATP on the inhibitory effect ([14]; 2 mM ATP, tannic acid 1 μM, DA about 10 μM): did not affect; effect of addition of pyruvate on the inhibitory effect ([14]; 2 mM pyruvic acid, tannic acid 1 μM, DA about 10 μM): rescue; microscopy observation of inhibited parasites ([14]; Giemsa staining): mostly located outside RBCs; inhibition of B. microti as compared with DMSO ([14]; tannic acid 1 μM, DA about 10 μM): significantly inhibit; CC50 [10]: 53 ± 2.8 µM; effect on the activity of rBmPYKI [1]: significantly inhibit; also recorded: significantly reduce; inhibition of the activity of rBmPYKI ([1]; 3 µM): more than 90%; IC50 ([1]; read-out: IC50 rBmPYKI): 0.5 µM and 0.49 µM; CC50 [11]: 36.5 ± 4.75 µM; IC50 [2]: 23.6 µM; inhibition rate of B. microti growth ([3]; 20 μM, 72 h): 80%; IC50 [3, 17]: 0.77 µM

Question: Which results are given for `CN(CCOc1ccc(CC2SC(=O)NC2=O)cc1)c1ccccn1` (stereo not shown) [Rosiglitazone]?
Answer: effect on the activity of rBmPYKI [1]: significantly inhibit; also recorded: significantly reduce; IC50 ([1]; read-out: IC50 rBmPYKI): 6.89 µM

B1: rBmPYKI (Babesia microti strain RI) (protein)
chain: MNRIIKAVPDDEISKKLTKIVCTIGPASANVDKIVAMIKSGMNVCRFNFSHGTHETHYETMKLVKEAMKQVPGKHIALMIDTKGPEIRTGKLAQGDYIQLTAGQTVKITSDQSVLCTNEIISITYEHLTSSVKPGNIILMADGTISFKVISVEKDYVVGEVMNSARLSNRKNVNLPGVKVNIPVIGEKDKKDILEFGVAHNMDYIAVSFVQSANDILSVKKLIGHNSNLKIISKIENVEGLINFDEILEVSDGIMIARGDLGMEIPSEKVFIAQKMMIYKCNIAGKPVITATQMLESMIVNPRPTRAEVTDVANAVLDGSDCVMLSGETANGAFSVECVRLMSHICLEAESCTDHMSVYLNLLKAIPTPVTTQEAIVRCSVGAIYSVNASCIIALTETGKTASLLAKYKPNQLIIAICNNENVAAGLALNRGVVPIMVDSFIDSDANINHAIEFAKKNNIVVEGSTVLAVHGMVSCAPGNTDMLKILNV
notes: recombinant, pGEX-6p-1, E. coli BL21, GST tag removed by 3C protease, 54 kDa
Question: Which Km [15] does the source give for B1 here?
Answer: 655 ± 117 µM

Question: And the Vmax [15]?
Answer: 250 µmol/min/mg

Question: And the Km [16]?
Answer: 388 ± 87 µM

Question: What about the Vmax [16] of the same molecule?
Answer: 242 µmol/min/mg

— article PMC8481833, “Kinetic Characterization and Inhibitor Screening of Pyruvate Kinase I From Babesia microti” (Frontiers in Microbiology, 2021)
